In patent US20070105837A1, “Novel derivatives of 4a,5,9,10,11,12-hexahydrobenzofuro[3a,3,2][2]-benzazepine, method for the production thereof and use thereof in the production of medicaments” (priority 2003, published 2007):
pIC50: −log10 of the molar value. Counter-ions that a name gives are not always drawn. Like-named read-outs stand apart in the source and are kept apart here.

Tests used:
acetylcholinesterase = acetylcholinesterase (Homo sapiens, UniProt P22303); experiment: biochemical
butyrylcholinesterase = butyrylcholinesterase (Homo sapiens, UniProt P06276); experiment: biochemical
Chain of butyrylcholinesterase (P06276 29-602): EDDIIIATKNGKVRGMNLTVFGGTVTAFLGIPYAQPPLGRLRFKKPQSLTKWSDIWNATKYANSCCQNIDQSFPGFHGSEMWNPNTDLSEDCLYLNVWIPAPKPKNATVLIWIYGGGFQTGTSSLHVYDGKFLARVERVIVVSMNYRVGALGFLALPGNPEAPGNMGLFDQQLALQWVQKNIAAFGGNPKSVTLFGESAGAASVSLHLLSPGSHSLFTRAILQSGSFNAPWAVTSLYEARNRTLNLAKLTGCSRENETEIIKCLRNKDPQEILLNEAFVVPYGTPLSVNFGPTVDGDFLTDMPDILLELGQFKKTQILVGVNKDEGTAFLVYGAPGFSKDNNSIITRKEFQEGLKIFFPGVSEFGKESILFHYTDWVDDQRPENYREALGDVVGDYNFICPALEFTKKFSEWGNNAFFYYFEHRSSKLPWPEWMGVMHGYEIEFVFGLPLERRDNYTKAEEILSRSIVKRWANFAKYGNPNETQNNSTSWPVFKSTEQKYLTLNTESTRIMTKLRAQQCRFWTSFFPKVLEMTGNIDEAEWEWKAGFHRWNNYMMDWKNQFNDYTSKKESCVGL

[1] = read-out: Acetylcholinesterase IC-50
[2] = read-out: Butyrylcholinesterase IC-50

Chain of acetylcholinesterase (P22303 32-614, species assumed): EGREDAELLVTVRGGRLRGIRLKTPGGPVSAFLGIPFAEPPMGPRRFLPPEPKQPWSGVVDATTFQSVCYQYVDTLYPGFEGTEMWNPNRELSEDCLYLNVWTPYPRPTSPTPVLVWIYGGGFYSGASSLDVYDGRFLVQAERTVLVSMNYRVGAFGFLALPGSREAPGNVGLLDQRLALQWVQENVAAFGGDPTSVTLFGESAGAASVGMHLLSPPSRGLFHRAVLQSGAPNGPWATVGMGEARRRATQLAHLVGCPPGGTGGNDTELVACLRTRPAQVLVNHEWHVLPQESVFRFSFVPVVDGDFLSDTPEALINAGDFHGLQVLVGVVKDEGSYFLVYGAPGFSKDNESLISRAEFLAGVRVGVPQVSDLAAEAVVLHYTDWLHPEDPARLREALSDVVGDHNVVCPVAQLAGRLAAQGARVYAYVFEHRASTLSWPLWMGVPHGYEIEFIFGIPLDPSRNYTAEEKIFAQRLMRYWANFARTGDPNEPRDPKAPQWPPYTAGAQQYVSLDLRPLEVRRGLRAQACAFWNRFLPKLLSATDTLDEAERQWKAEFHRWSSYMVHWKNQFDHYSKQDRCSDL

Structure (SMILES) | pIC50 (acetylcholinesterase; [1]) | pIC50 (butyrylcholinesterase; [2]) | pIC50 (acetylcholinesterase) | pIC50 (butyrylcholinesterase)
COC(=O)CCC(=O)N1CC[C@]23C=C[C@@H](O)C[C@H]2Oc2c(OC)cc(Br)c(c23)C1 [Example 9, Methyl-4-((4aR,6S,8aR)-1-bromo-4a,5,9,10,11,12-hexahydro-6-hydroxy-3-methoxy-6H-benzofuro[3a,3,2-ef][2]benzazepine-11-yl)gamma-oxobutyrate] | < 4.00 | < 4.00 | – | –
COc1cc(Br)c2c3c1O[C@H]1C[C@@H](O)C=C[C@@]31CCN(CCN1CCOCC1)C2 [Example 57, (4aS,6R,8aS)-1-bromo-4a,5,9,10,11,12-hexahydro-11-(2-(mopholin-4-yl)-ethyl)-3-methoxy-6H-[1]benzafuro[3a,3,2-ef][2]benzazepin-6-ol] | – | – | < 4.00 | 5.57
COc1ccc2c3c1O[C@@H]1C[C@@H](N)C=C[C@]31CCN(C)C2 [Example 28, (4aR,6R,8aR)-4a,5,9,10,11,12-hexahydro-3-methoxy-11-methyl-6H-benzofuro[3a,3,2-ef][2]benzazepin-6-amine, dihydrochloride] | < 4.00 | < 4.00 | – | –
COc1ccc2c3c1O[C@H]1C=C(C)C=C[C@@]31CCN(C)C2 [Example 60, (4aS,8aS)-D5,6--4a,5,9,10,11,12-hexahydro-6,11-dimethyl-3-methoxy-6H-[1]benzofuro[3a,3,2-ef][2]benzazepine] | 4.10 | 3.70 | – | –
COc1ccc2c3c1O[C@H]1C[C@@H](O)C=C[C@@]31CCN(c1nc(Cl)nc(Cl)n1)C2 [Example 42, (4aS,6R,8aS)-11-(4,6-dichloro-1,3,5,-triazin-2-yl)-3-methoxy-5,6,9,10,11,12-hexahydro-4aH-[1]benzofuro[3a,3,2-ef][2]benzazepin-6-ol] | < 4.00 | < 4.00 | – | –
CNC(=S)N1CC[C@]23C=C[C@H](O)C[C@H]2Oc2c(OC)cc(Br)c(c23)C1 [Example 4, (4aR,6R,8aR)-1-brorno-4a,5,9,10-tetrahydro-6-hydroxy-3-methoxy-6H-[1]benzofuro-[3a,3,2-ef][2]benzazepine-11(12H)-thiocarbonic acid methylamide] | < 4.00 | < 4.00 | – | –
COc1ccc2c3c1O[C@H]1C[C@H](O)C=C[C@@]31CCN(C(N)=O)C2 [Example 21, (4aS,6S,8aS)-4a,5,9,10-tetrahydro-6-hydroxy-3-methoxy-6H-[1]benzofuro[3a,3,2-ef][2]benzazepine-11(12H)-carboxamide] | < 4.00 | < 4.00 | – | –
COc1ccc2c3c1O[C@H]1C[C@@H](O)C=C[C@@]31CCN(C(=O)CCC(=O)O)C2 [Example 39, ((4aS,6R,8aS)-4a,5,9,10,11,12-hexahydro-6-hydroxy-3-methoxy-6H-benzofuro[3a,3,2-ef][2]benzazepine-11--yl)gamma-oxobutyric acid] | < 4.00 | < 4.00 | – | –
COc1ccc2c3c1O[C@H]1C[C@@H](O)C=C[C@@]31CCN(C(N)=S)C2 (stereo in doubt) [Example 30, (4aS,6R,8aS)-6-hydroxy-3-methoxy-5,6,9,10-tetrahydro-4aH-[1]benzofuro[3a,3,2-ef][2]benzazepine-11(12H)-carbothioamide] | < 4.00 | < 4.00 | – | –
COc1cc(Br)c2c3c1OC1C[C@H](O)C=C[C@]31CCN(CCN1CCOCC1)C2 (single isomer, unassigned) [Example 58] | < 4.00 | 4.28 | – | –
COc1ccc2c3c1O[C@H]1C[C@H](O)C=C[C@@]31CCN(C(=O)NC(C)C)C2 [Example 14] | < 4.00 | < 4.00 | – | –
CNC(=S)N1CC[C@]23C=C[C@@H](O)C[C@H]2Oc2c(OC)cc(Br)c(c23)C1 [Example 11, (4aR,6S,8aR)-1-bromo-4a,5,9,10-tetrahydro-6-hydroxy-3-methoxy-6H-[1]benzofuro-[3a,3,2-et][2]benzazepine-11(12H)-thiocarbonic acid methylamide] | < 4.00 | < 4.00 | – | –
COc1cc(Br)c2c3c1O[C@@H]1C[C@H](O)C=C[C@]31CCN(Cc1ccccc1)C2 [Example 6, (4aR,6S,8aR)-11-benzyl-1-bromo-4a,5,9,10,11,12-hexahydro-3-methoxy-6H-[1]benzofuro[3a,3,2-ef][2]benzazepin-6-ol] | < 4.00 | 4.72 | – | –
COc1ccc2c3c1O[C@H]1C[C@@H](O)C=C[C@@]31CCN(c1ncccn1)C2 [Example 37, (4aS,6R,8aS)-3-methoxy-11-(2-pyrimidinyl)-5,6,9,10,11,12-hexahydro-4aH-[1]benzofuro [3a,3,2-ef][2]benzazepin-6-ol] | < 4.00 | < 4.00 | – | –
COc1ccc2c3c1O[C@@H]1C[C@@H](O)C=C[C@]31CCN(C(N)=O)C2 [Example 25, (4aR,6R,8aR)-4a,5,9,10-tetrahydro-6-hydroxy-3-methoxy-6H-[1]benzofuro[3a,3,2-ef][2]benzazepine-11(12H)-carboxamide] | < 4.00 | < 4.00 | – | –
C=CCNC(=S)N1CC[C@@]23C=C[C@@H](O)C[C@@H]2Oc2c(OC)ccc(c23)C1 [Example 20, (4aS,6S,8aS)-6-hydroxy-3-methoxy-4a,5,9,10-tetrahydro-6H-[1]benzofuro[3a,3,2-ef][2]benzazepine-11(12H)-thiocarbonic acid allylamide] | < 4.00 | < 4.00 | – | –
COc1cc(Br)c2c3c1O[C@@H]1C[C@H](O)C=C[C@]31CCN(CCCN)C2 [Example 10, (4aR,6S,8aR)-11-(4-aminopropyl)-3-methoxy-5,6,9,10,11,12-hexahydro-4aH-[1]benzofuro[3a,3,2-et][2]benzazepin-6-ol, methane sulfonate] | < 4.00 | < 4.00 | – | –
COc1cc(Br)c2c3c1O[C@@H]1C[C@@H](O)C=C[C@]31CCNC2 [Example 3, (4aR,6R,8R)-1-bromo-4a,5,9,10,11,12-hexahydro-3-methoxy-6H-[1]benzofuro[3a,3,2-ef][2]benzazepin-6-ol.] | – | – | < 4.00 | < 4.00
COc1ccc2c3c1O[C@@H]1C[C@@H](O)C=C[C@]31CCN(/C(=N/C#N)SC)C2 [Example 27, Methyl (4aR,6R,8aR)-N11-cyano-6-hydroxy-3-methoxy-4a,5,9,10-tetrahydro-6H-[1]benzofuro [3a,3,2-ef][2]benzazepine-11(12H)-carboximidothioate] | < 4.00 | < 4.00 | – | –
COc1ccc2c3c1O[C@H]1C[C@@H](O)C=C[C@@]31CCN(CC(N)=O)C2 [Example 34, 2-((4aS,6R,8aS)-6-hydroxy-3-methoxy-5,6,9,10-tetrahydro-4aH-[1]benzofuro[3a,3,2-ef][2]benzazepine-11(12H)-yl)acetamide] | < 4.00 | 4.11 | – | –
COc1cc(Br)c2c3c1O[C@H]1C[C@H](O)C=C[C@@]31CCNC2 [Example 1, (4aS,6S,8S)-1-bromo-4a,5,9,10,11,12-hexahydro-3-methoxy-6H-[1]benzofuro[3a,3,2-ef][2]benzazepin-6-ol.] | – | – | < 4.00 | < 4.00
COc1ccc2c3c1O[C@@H]1C=C(c4ccccc4)C=C[C@@]31CCN(C)C2 [Example 59, (4aS,8aS)-D5,6-4a,5,9,10,11,12-hexahydro-11-methyl-3-methoxy-6-phenyl-6H-[1]benzofuro[3a,3,2-ef][2]benzazepine] | 4.28 | 4.60 | – | –
COc1ccc2c3c1O[C@@H]1C[C@H](O)C=C[C@]31CCN(CCCO)C2 [Example 29, (4aR,6S,8aR)-11-(3-hydroxypropyl)-3-methoxy-5,6,9,10,11,12-hexahydro-4aH-[1]benzofuro[3a,3,2-ef][2]benzazepin-6-ol] | < 4.00 | < 4.00 | – | –
COc1ccc2c3c1O[C@H]1C[C@@H](O)C=C[C@@]31CCN(CCCCN1CCCCC1)C2 [Example 50] | – | – | 7.44 | 6.21
